Assays:
[1] = target: T1, P2RY14 (Homo sapiens, UniProt Q15391); assay: FLIPR whole cell Ca2+ agonist assay, HEK cells expressing human P2RY14 and Gqi5; assay type: cell-based; parameters: expressed in transfected cells; conditions: for activation of P2RY14 (Ca2+ signaling): HEK cells expressing human P2RY14 and Gqi5, FLIPR
T1 sequence (Q15391 1-338): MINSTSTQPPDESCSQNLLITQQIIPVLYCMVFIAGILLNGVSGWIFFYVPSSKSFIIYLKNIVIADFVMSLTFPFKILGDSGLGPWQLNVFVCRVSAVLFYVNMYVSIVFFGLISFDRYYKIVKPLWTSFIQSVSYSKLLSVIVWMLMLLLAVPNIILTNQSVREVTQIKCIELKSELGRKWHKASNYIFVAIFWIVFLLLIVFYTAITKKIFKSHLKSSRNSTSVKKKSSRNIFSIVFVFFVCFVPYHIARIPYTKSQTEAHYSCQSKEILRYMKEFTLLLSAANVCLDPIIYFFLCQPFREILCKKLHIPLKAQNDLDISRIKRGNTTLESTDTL
Source text: (§1) Stable HEK clonal cell lines expressing P2RY14 and the chimeric G protein Gqi5 were constructed. The chimeric Gqi5 forces the coupling of P2RY14 through the Gq (calcium) pathway and allows for monitoring of calcium signaling using a calcium binding fluorescent dye and a FLIPR (fluorometric imaging plate reader, MDS Sciex). Vector pCEP4 comprising the chimeric Gqi5 was obtained from Molecular Devices, Sunnyvale, Calif. (Cat. No. RD-PGQI5).
The human P2RY14 was PCR amplified from the I.M.A.G.E. clone obtained from Invitrogen, Carlsbad, Calif. […] The codon encoding glutamate at position 54 in the wild-type human P2RY14 was changed to code for lysine. […] The PCR reaction was done in two parts. In the first part, the reaction was 5 cycles at 94° C. for 30 seconds, 65° C. for 30 seconds, and 72° C. for 90 seconds. In the second part, the reaction was 25 cycles at 94° C. for 30 seconds, 70° C. for 30 seconds, 72° C. for 90 seconds. The last cycle was followed by 7 minutes at 72° C. The PCR amplified human P2RY14 was digested with KpnI and NotI and cloned into a pcDNA3.1 (+) vector previously digested with KpnI and NotI to place the DNA fragment in the proper orientation downstream of the CMV promoter. The nucleic acid encoding the human P2RY14 was under the control of the CMV promoter.
(§2) Cells were grown in DMEM medium containing 25 mM HEPES, pH 7.4 and 10% FBS, 50 units/ml penicillin/50 μg/ml streptomycin, 2 mM glutamine and 1 mM sodium pyruvate at 37° C. in humidified air containing 5% CO2. Two days post-transfection, cells were grown under selection in the DMEM medium as indicated above and supplemented with 200 μg/ml Hygromycin B and 250 μg/ml geneticin.
(§3) Cells were incubated overnight at 37° C. and 5% CO2 to form a monolayer. On the following day, 30 μl of fluorescent no-wash dye was added to the cell monolayer and the plate was incubated for 60 minutes at 37° C., 5% CO2.
(§4) For agonist assays, 6.12 μl of 10× agonist solution was added to the cell/dye incubation and Ca^2+ signaling was monitored by FLIPR. For antagonist assays, 250 nl of compound in 100% DMSO was added to cell/dye mixture; following a 20 minute incubation at room temperature, 6.12 μl of 10× agonist solution at EC80 in HBSS containing 20 mM Hepes was added to cells and Ca^2+ signaling was monitored by FLIPR. Quantitation of the % stimulation or inhibition of Ca^2+ signaling by agonist or antagonist, respectively, was calculated using the Max-Min fluorescent signal detected.

[2] = tested on: simian (chimpanzee) P2RY14; assay: CellKey System live cell functional assay, simian P2RY14; assay type: cell-based; conditions: HEK cells expressing simian P2RY14 and Gqi5
Description: (§5) The Cellkey System™ (MDS Sciex), a novel, live cell, label-free, real-time technology, was used to examine P2RY14 activation following agonist stimulation. The CellKey System™ is based on cellular dielectric spectroscopy (CDS) and monitors changes in impedance of the applied electrical current through the cell monolayer upon receptor activation.
(§6) On the following day, growth medium was removed from the cell monolayer and replaced with 135 μl of HBSS pH 7.4 containing 20 mM Hepes for a 30 minutes pre-incubation period at room temperature. Baseline measurements were made for 5 minutes at 28° C. prior to ligand addition. For agonist assays, 15 μl of 10× agonist diluted in HBSS pH 7.4 containing 20 mM HEPES was added to the cell monolayer simultaneously using the 96 multichannel head from the CellKey™ System. Cellular response was monitored for 10 minutes to assess cellular response after ligand addition.

[3] = target: T2, mouse P2RY14 (Mus musculus, UniProt Q9ESG6); assay: CellKey System live cell functional assay, mouse P2RY14; assay type: cell-based; conditions: HEK cells expressing mouse P2RY14 and Gqi5
T2 construct: expressed in transfected cells
T2 sequence (Q9ESG6 1-338): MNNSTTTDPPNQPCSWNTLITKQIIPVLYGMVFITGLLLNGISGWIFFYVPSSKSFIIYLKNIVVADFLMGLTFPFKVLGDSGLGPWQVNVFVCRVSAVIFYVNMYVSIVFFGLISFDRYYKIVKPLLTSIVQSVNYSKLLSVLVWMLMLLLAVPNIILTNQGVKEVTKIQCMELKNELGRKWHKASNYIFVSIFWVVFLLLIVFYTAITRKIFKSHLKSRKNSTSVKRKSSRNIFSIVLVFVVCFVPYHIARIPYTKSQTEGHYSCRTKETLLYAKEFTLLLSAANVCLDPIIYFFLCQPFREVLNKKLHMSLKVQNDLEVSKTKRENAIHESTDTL
Description: as §5, §6

[4] = target: T1, P2RY14; parameters: host or cells: yeast and HEK-293 cells (Chambers et al., J. Biol. Chem. 275: 10767-10771 (2000)); conditions: yeast and mammalian cells, Chambers et al. 2000; cited from earlier work
[5] = tested on: simian (chimpanzee) P2RY14; assay: FLIPR whole cell Ca2+ agonist assay, HEK cells expressing simian (chimpanzee) P2RY14 and Gqi5; assay type: cell-based
Source text: as §1
The simian (chimpanzee) P2RY14 nucleic acid fragment was synthesized based upon the Ensembl Gene ID ENSPTRG00000030093 by Bio S & T, Montreal, Quebec, Canada, to be flanked with KpnI and NotI restriction enzyme sites. […] The DNA fragment was digested with KpnI and NotI and then cloned into a pcDEF3 vector previously digested with KpnI and NotI to place the DNA fragment in the proper orientation downstream of the human EF-1a promoter. The nucleic acid encoding the simian P2RY14 was under the control of the human EF-1a promoter.
as §2, §3, §4

[6] = target: T2, mouse P2RY14; assay: FLIPR whole cell Ca2+ agonist assay, HEK cells expressing mouse P2RY14 and Gqi5; assay type: cell-based
Source text: as §1
The nucleic acid encoding the mouse P2RY14 was under the control of the CMV promoter.
as §2, §3, §4

[7] = tested on: HEK cells not expressing P2RY14; assay: FLIPR Ca2+ release in HEK cells not expressing P2RY14 (specificity); assay type: cell-based
[8] = target: T1, P2RY14; assay: CellKey System live cell functional assay, human P2RY14; assay type: cell-based; parameters: expressed in transfected cells; conditions: HEK cells expressing human P2RY14 and Gqi5
Description: as §5, §6

[9] = tested on: simian P2RY14; assay: Membrane filtration binding assay, simian P2RY14; parameters: species or system chimpanzee; conditions: HEK cells expressing simian P2RY14, membrane filtration
Description: Membrane preparations were made by N2 cavitation using a Parr unit. […] Cell were Dounce homogenized (size B, 10 strokes) and then added to the cavitation unit. Pressure was adjusted to 800 psi and cells were left under pressure for 30 minutes. Broken cells were released drop by drop and spun at 1000 g for 10 minutes. Supernatent was spun at 160,000 g (rotor type 60 Ti, 40000 rpm for 30 min). Pellet was resuspended in 10 mM HEPES/KOH pH 7.4, 1 mM EDTA in ⅕ the original volume, dounce homogenized (size A, 10 strokes), aliquoted, and frozen at −80° C.
Binding assays were performed in 10 mM Hepes pH 7.4 (KOH), 5 mM MnCl2, 5 mM MgCl2 buffer. Membranes (10 μg/well for human P2RY14 and 30 μg/well for simian P2RY14) were incubated with 10 nM [5.6-^3H] Uridine 5′-triphosphate (UTP), ammonium salt from Amersham Biosciences (# TRK412) in presence of compounds diluted in DMSO (2% final in assay), in a total volume of 100 μl. 50 minutes (human P2RY14) or 60 minutes (simian) P2RY14) incubations were performed at room temperature with shaking. […] To examine the stability of [^3H]-UTP in the membrane filtration binding assay, 100 ul aliquots of the reaction mixture were extracted at 2, 10, 20, 40, 60 and 90 minutes with 100 uL of cold 80 mM EDTA solution (pH 8) and 200 uL of cold Acetonitrile. After mixing, proteins were precipitated by centrifugation at 13000 rpm for 10 minutes at 4° C. […] After 0.5 min at 10:90 50 mM KH2PO4/750 mM KH2PO4, a gradient was applied in order to increase to 100% 750 mM KH2PO4 at 5 min, after which this composition was maintained for an additional 3 min. Samples were kept at 4° C. prior to HPLC analysis

| Ca2+ response as compared to UDP-glucose and UMP ([1]; HEK cells expressing human P2RY14) | Compound | activation of P2RY14 (Ca2+ signaling) [1] | P2RY14 signaling (impedance, CellKey) [2] | P2RY14 signaling (impedance, CellKey) [3] | activation of P2RY14 [4] | activation of P2RY14 (Ca2+ signaling) [5] | activation of P2RY14 (Ca2+ signaling) [6] | Ca2+ release in cells not expressing P2RY14 [7] | P2RY14 signaling (impedance, CellKey) [8] | specific binding window as radioligand [9] |
| --- | --- | --- | --- | --- | --- | --- | --- | --- | --- | --- |
| much larger Ca^2+ response | O=c1ccn([C@@H]2O[C@H](COP(=O)(O)OP(=O)(O)OP(=O)(O)O)[C@@H](O)[C@H]2O)c(=O)[nH]1 [UTP, Uridine 5′-triphosphate] | activated | mediated signaling | mediated signaling | unable to activate | activated | activated | able to stimulate Ca^2+ release in a dose-dependent manner | mediated signaling | – |
| – | O=P(O)(O)OP(=O)(O)OC[C@H]1O[C@@H](n2cnc3c(O)ncnc32)[C@H](O)[C@@H]1O [inosine diphosphate] | activated | – | – | – | activated | activated | – | – | – |
| – | [^3H]-UMP | – | – | – | – | – | – | – | – | no specific binding window |
| – | CC(=O)N[C@H]1[C@@H](OP(=O)(O)OP(=O)(O)OC[C@H]2O[C@@H](n3ccc(=O)[nH]c3=O)[C@H](O)[C@@H]2O)O[C@H](CO)[C@@H](O)[C@@H]1O [UDP-N-acetylglucosamine] | activated | mediated signaling | mediated signaling | able to activate | activated | activated | – | mediated signaling | – |
| – | Nc1ncnc2c1ncn2[C@@H]1O[C@H](COP(=O)(O)OP(=O)(O)O[C@H]2O[C@H](CO)[C@@H](O)[C@H](O)[C@H]2O)[C@@H](O)[C@H]1O [ADP-glucose] | – | – | – | unable to activate | – | – | – | – | – |
| – | O=C(O)[C@H]1O[C@H](OP(=O)(O)OP(=O)(O)OC[C@H]2O[C@@H](n3ccc(=O)[nH]c3=O)[C@H](O)[C@@H]2O)[C@H](O)[C@@H](O)[C@@H]1O [UDP-glucuronic acid] | activated | mediated signaling | mediated signaling | able to activate | activated | activated | – | mediated signaling | – |
